From patent US12543736B2, “Herbicidal compositions comprising mesotrione” (BASF SE, priority 2024, dated 2026)

Assays:
Type in all cases: in vivo
Echinochloa crus-galli = test: Example 1 post-emergence greenhouse trial, ECHCG; settings: growth stage 14, 21 DAT
Procedure: In the examples below, using the method of S. R. Colby (1967) “Calculating synergistic and antagonistic responses of herbicide combinations”, Weeds 15, p. 22ff., the value E, which is expected if the activity of the individual active compounds is only additive, was calculated: [formula] • where • X=percent activity using active herbicide A at an application rate a; • Y=percent activity using active herbicide B (e.g. mesotrione) at an application rate b; • E=expected activity (in %) by A+B at application rates a+b. If the value found experimentally is higher than the value E calculated according to Colby, a synergistic effect is present. The culture containers used were plastic pots containing loamy sand with approximately 3.0% of humus as substrate. The seeds of the test plants were sown separately for each species. For the post-emergence treatment, the test plants were grown to a plant height of from 3 to 15 cm, depending on the plant habit, and only then treated with the active compounds which had been suspended or emulsified in water. To this end, the test plants were either sown directly, and grown in the same containers, or they were first grown separately as seedlings and transplanted into the test containers a few days prior to treatment. Depending on the species, the plants were kept at 10-25° C. and 20-35° C., respectively. The test period extended over 2 to 4 weeks. During this time, the plants were tended and their response to the individual treatments was evaluated. Evaluation was carried out using a scale from 0 to 100. 100 means no emergence of the plants, or complete destruction of at least the above-ground parts, and 0 means no damage or normal course of growth. A good herbicidal activity is given at values of at least 70, and very good herbicidal activity is given at values of at least 85. Post-Emergence Application of Herbicide A-1 (A-1) and Mesotrione (B) in Greenhouse Trials Herbicide A-1 (50 g/l) and mesotrione (480 g/l) were, together with addition of 1 v/v % MSO (methylated sed oil) as adjuvant, formulated in water as distribution medium (water volume 200 l/ha) and sprayed with commercial flat fan nozzles.

Avena fatua = test: Example 2 post-emergence greenhouse trial, AVEFA
Procedure: (§1) In the examples below, using the method of S. R. Colby (1967) “Calculating synergistic and antagonistic responses of herbicide combinations”, Weeds 15, p. 22ff., the value E, which is expected if the activity of the individual active compounds is only additive, was calculated: [formula] • where • X=percent activity using active herbicide A at an application rate a; • Y=percent activity using active herbicide B (e.g. mesotrione) at an application rate b; • E=expected activity (in %) by A+B at application rates a+b. If the value found experimentally is higher than the value E calculated according to Colby, a synergistic effect is present. The culture containers used were plastic pots containing loamy sand with approximately 3.0% of humus as substrate. The seeds of the test plants were sown separately for each species. For the post-emergence treatment, the test plants were grown to a plant height of from 3 to 15 cm, depending on the plant habit, and only then treated with the active compounds which had been suspended or emulsified in water. To this end, the test plants were either sown directly, and grown in the same containers, or they were first grown separately as seedlings and transplanted into the test containers a few days prior to treatment. Depending on the species, the plants were kept at 10-25° C. and 20-35° C., respectively. The test period extended over 2 to 4 weeks. During this time, the plants were tended and their response to the individual treatments was evaluated. Evaluation was carried out using a scale from 0 to 100. 100 means no emergence of the plants, or complete destruction of at least the above-ground parts, and 0 means no damage or normal course of growth. A good herbicidal activity is given at values of at least 70, and very good herbicidal activity is given at values of at least 85. Post-Emergence Application of Herbicide A-1 (A-1) and Mesotrione (B) in Greenhouse Trials Herbicide A-1 (342 g/l) and mesotrione (480 g/l) were, together with addition of 0.5 v/v % MSO (methylated sed oil) as adjuvant, formulated in water as distribution medium (water volume 200 l/ha) and sprayed with commercial flat fan nozzles.

Erigeron canadensis = test: Example 2 post-emergence greenhouse trial, ERICA
Procedure: as §1

Commelina benghalensis = test: Example 4 post-emergence application A-1, B and C-19, COMBE; settings: growth stage 13, 21 DAT, g ai/ha: A-1 1, B 50, C-19 30
Procedure: In the examples below, using the method of S. R. Colby (1967) “Calculating synergistic and antagonistic responses of herbicide combinations”, Weeds 15, p. 22ff., the value E, which is expected if the activity of the individual active compounds is only additive, was calculated:
[formula] • where • X=percent activity using active herbicide A at an application rate a; • Y=percent activity using active herbicide B (e.g. mesotrione) at an application rate b; • E=expected activity (in %) by A+B at application rates a+b.
If the value found experimentally is higher than the value E calculated according to Colby, a synergistic effect is present.
Evaluation was carried out using a scale from 0 to 100. 100 means no emergence of the plants, or complete destruction of at least the above-ground parts, and 0 means no damage or normal course of growth. A good herbicidal activity is given at values of at least 70, and very good herbicidal activity is given at values of at least 85.
Post-Emergence Application of Herbicide A-1 (A-1), Mesotrione (B) and Pyroxasulfone (C-19)
Herbicide A-1 (342 g/l), mesotrione (100 g/l) and pyroxasulfone (500 g/l) were, together with addition of 0.5 v/v % MSO (methylated sed oil) as adjuvant, formulated in water as distribution medium (water volume 200 l/ha) and sprayed with commercial flat fan nozzles.

[1] = growth stage 11, 7 DAT, g ai/ha: A-1 1, B 50
[2] = growth stage 11, 20 DAT, g ai/ha: A-1 1, B 50
[3] = growth stage 11, 20 DAT, g ai/ha: A-1 1, B 100
[4] = growth stage 19, 7 DAT, g ai/ha: A-1 1, B 50
[5] = growth stage 19, 20 DAT, g ai/ha: A-1 0.5, B 50
[6] = growth stage 19, 20 DAT, g ai/ha: A-1 2, B 50

| Compound | % herbicidal activity (Echinochloa crus-galli; g ai/ha: A-1 1, B 62.5) | % herbicidal activity (Echinochloa crus-galli; g ai/ha: A-1 4, B 62.5) | % herbicidal activity (Avena fatua; [1]) | % herbicidal activity (Avena fatua; [2]) | % herbicidal activity (Avena fatua; [3]) | % herbicidal activity (Erigeron canadensis; [4]) | % herbicidal activity (Erigeron canadensis; [5]) | % herbicidal activity (Erigeron canadensis; [6]) | % herbicidal activity (Commelina benghalensis) |
| --- | --- | --- | --- | --- | --- | --- | --- | --- | --- |
| CCOC(=O)COc1ccccc1Oc1nc(-n2c(=O)cc(C(F)(F)F)n(C)c2=O)c(F)cc1Cl [A-1, ethyl 2-[2-[[3-chloro-5-fluoro-6-[3-methyl-2,6-dioxo-4-(trifluoromethyl)pyrimidin-1-yl]-2-pyridyl]oxy]phenoxy]acetate] | 90% | 90% | 70% | 35% | 35% | 80% | 70% | 85% | 80% |
| CS(=O)(=O)c1ccc(C(=O)C2C(=O)CCCC2=O)c([N+](=O)[O-])c1 [B, mesotrione] | 65% | 65% | 15% | 15% | 15% | 25% | 80% | 80% | 90% |
